# Assay results as given in patent US20190105367A1, “ANTIMICROBIAL 4-OXOQUINOLIZINES” (Emergent Product Development Gaithersburg Inc., priority 2011, published 2019).
# Columns and labels:
# [1] = test system: B. thailandensis E264; assay: microbe, parasite or virus in culture; type: cell-based, Burkholderia thailandensis
# [2] = test system: A. baumannii ATCC 19606; assay: MIC, selected panel of bacterial strains (Example 5); type: cell-based, Acinetobacter baumannii
# [3] = test system: S. aureus ATCC 25923; assay: as above; type: cell-based, Staphylococcus aureus
# [4] = test system: S. aureus ATCC 43300 (MRSA, FQ-S); assay: as above; type: cell-based, Staphylococcus aureus; conditions: MRSA, FQ-S
# [5] = test system: E. coli ATCC 25922; assay: as above; type: cell-based, Escherichia coli
# [6] = test system: S. aureus BAA-1556 (USA300-Type) (MRSA, FQ-R); assay: as above; type: cell-based, Staphylococcus aureus; conditions: MRSA, FQ-R
# [7] = test system: P. aeruginosa ATCC 27853; assay: as above; type: cell-based, Pseudomonas aeruginosa
# [8] = test system: K. pneumoniae BAA-2146 (NDM-1, FQ-R); assay: MIC on K. pneumoniae (Example 5); type: cell-based, Klebsiella pneumoniae; conditions: quinolone-resistant strain
# Procedure: (§1) MIC Values for all compounds were measured against a selection of bacterial strains. The MICs of 4-oxoquinolizines against a selection of Gram-negative and Gram-positive bacterial strains are shown in Table 13 in comparison with known antibiotics.
# [9] = test system: K. pneumoniae ATCC 33495; assay: MIC on K. pneumoniae (Example 5); type: cell-based, Klebsiella pneumoniae; conditions: sensitive strain
# Procedure: as §1
SMILES,MICs against Gram negative bacteria B. thailandensis E264 [1],MICs against Gram negative bacteria A. baumannii ATCC 19606 [2],MICs against Gram positive bacteria S. aureus ATCC 25923 [3],"MICs against Gram positive bacteria S. aureus ATCC 43300 (MRSA, FQ-S) [4]",MICs against Gram negative bacteria E. coli ATCC 25922 [5],"MICs against Gram positive bacteria S. aureus BAA-1556 (USA300-Type) (MRSA, FQ-R) [6]",MICs against Gram negative bacteria P. aeruginosa ATCC 27853 [7],"MICs K. pneumoniae BAA-2146 (NDM-1, FQ-R) [8]",MICs K. pneumoniae ATCC 33495 [9]
Cc1c(-c2ccc(CN)cc2)c(F)cn2c(=O)c(C(=O)[O-])cc(C3CC3)c12.[K+] [Compound 6K salt],4 µg/mL,1 µg/mL,0.125 µg/mL,0.064 µg/mL,0.064 to 0.125 µg/mL,1 µg/mL,4 to 8 µg/mL,–,–
"Cc1c(-c2ccc(N)nc2)ccn2c(=O)c(C(=O)[O-])cc(C3CC3)c12.[K+] [Compound 33K salt, potassium 8-(6-amino-pyridin-3-yl)-1-cyclopropyl-9-methyl-4-oxo-4H-quinolizine-3-carboxylate]",–,–,–,–,–,–,–,>8 µg/mL,0.064 µg/mL
"Cc1c(-c2ccc3[nH]ncc3c2)ccn2c(=O)c(C(=O)[O-])cc(C3CC3)c12.[K+] [Compound 35K salt, potassium 8-(1H-indazol-5-yl)-1-cyclopropyl-9-methyl-4-oxo-4H-quinolizine-3-carboxylate]",–,–,–,–,–,–,–,>8 µg/mL,0.125 µg/mL
